# Experimental data reported in publication PMC5998028, “Synthesis, antimicrobial activity and conformational analysis of the class IIa bacteriocin pediocin PA-1 and analogs thereof” (Scientific Reports, 2018).
# Assays:
# M. luteus ATCC 10240 = assay: Antimicrobial assay; assay type: cell-based, Micrococcus luteus; conditions: at up to 100 µM
# [1] = tested on: Bacillus subtilis ATCC 6633; assay: MIC micro-dilution assay; assay type: cell-based; conditions: MH, 37 °C, 18 h
# [2] = tested on: Staphylococcus aureus ATCC 29213; assay: MIC micro-dilution assay; assay type: cell-based; conditions: MH, 37 °C, 18 h
# [3] = tested on: Staphylococcus aureus ATCC 6538; assay: MIC micro-dilution assay; assay type: cell-based; conditions: MH, 37 °C, 18 h
# [4] = tested on: Bacillus coagulans ATCC 7050; assay: MIC micro-dilution assay; assay type: cell-based; conditions: MH, 37 °C, 18 h
# [5] = tested on: Clostridium tyrobutiricum ATCC 25755; assay: MIC micro-dilution assay; assay type: cell-based, Clostridium tyrobutyricum; conditions: RCM, 37 °C, 18 h
# [6] = tested on: Lactobacillus acidophilus ATCC 4356; assay: MIC micro-dilution assay; assay type: cell-based; conditions: MRS, 37 °C, 18 h
# [7] = tested on: Enterococcus hirae ATCC 10541; assay: MIC micro-dilution assay; assay type: cell-based; conditions: BHI, 37 °C, 18 h
# [8] = tested on: Bacillus cereus LSPQ 2872; assay: MIC micro-dilution assay; assay type: cell-based; conditions: MH, 37 °C, 18 h
# [9] = tested on: Bifidobacterium animalis ATCC 27536; assay: MIC micro-dilution assay; assay type: cell-based; conditions: RCM, 37 °C, 18 h
# [10] = tested on: Lactococcus lactis ATCC 19257; assay: MIC micro-dilution assay; assay type: cell-based; conditions: MRS, 37 °C, 18 h
# [11] = tested on: Streptococcus thermophilus RBL 18 FYE 41; assay: MIC micro-dilution assay; assay type: cell-based; conditions: MH, 37 °C, 18 h
# [12] = tested on: Enteroccocus faecalis ATCC 27275; assay: MIC micro-dilution assay; assay type: cell-based, Enterococcus faecalis; conditions: BHI, 37 °C, 18 h
# [13] = tested on: Staphylococcus aureus ATCC 25923; assay: MIC micro-dilution assay; assay type: cell-based; conditions: MH, 37 °C, 18 h
# C. perfringens = assay type: cell-based, Clostridium perfringens; conditions: radial diffusion assays, RCM
# [14] = tested on: Escherichia coli ATCC 25922; assay: MIC micro-dilution assay; assay type: cell-based; conditions: MH, 37 °C, 18 h
# [15] = tested on: L. monocytogenes ATCC 19111; conditions: micro-dilution, twofold serial dilutions, 37 °C, 18 h, absorbance 595 nm, means of two independent experiments in duplicate
# L. monocytogenes LSD530 = conditions: micro-dilution, twofold serial dilutions, 37 °C, 18 h, absorbance 595 nm, means of two independent experiments in duplicate
# L. ivanovii HPB28 = conditions: micro-dilution, twofold serial dilutions, 37 °C, 18 h, absorbance 595 nm, means of two independent experiments in duplicate
# P. acidilactici UL5 = assay: MIC micro-dilution assay; assay type: cell-based, Pediococcus acidilactici; conditions: P. acidilactici UL5 (pediocin producer, immune), 37 °C, 18 h, absorbance 595 nm, means of two independent experiments in duplicate
# [16] = tested on: L. ivanovii HPB28, L. monocytogenes LSD530, L. monocytogenes ATCC 19111; conditions: L. ivanovii HPB28, L. monocytogenes LSD530 and ATCC 19111; micro-dilution, 37 °C, 18 h
# [17] = tested on: L. monocytogenes ATCC 19111; conditions: L. monocytogenes ATCC 19111, soft agar TSBYE; 75 µL of 1 mg/mL peptide (or UL5 culture supernatant) per well; 37 °C, 18 h
compound,measurement,setting,value
"CC[C@H](C)[C@@H]1NC(=O)[C@@H](NC(=O)[C@@H](NC(=O)[C@@H](NC(=O)[C@H](C)NC(=O)[C@H](CCCCN)NC(=O)CNC(=O)[C@H](Cc2c[nH]c3ccccc23)NC(=O)[C@H](CC(=O)O)NC(=O)[C@@H](NC(=O)[C@H](CO)NC(=O)[C@@H]2CSSC[C@H](NC(=O)[C@@H](NC(=O)[C@@H](NC(=O)CNC(=O)[C@H](CC(N)=O)NC(=O)CNC(=O)[C@H](Cc3ccc(O)cc3)NC(=O)[C@H](Cc3ccc(O)cc3)NC(=O)[C@@H](N)CCCCN)C(C)C)[C@@H](C)O)C(=O)NCC(=O)N[C@@H](CCCCN)C(=O)N[C@@H](Cc3c[nH]cn3)C(=O)N[C@@H](CO)C(=O)N2)C(C)C)[C@@H](C)O)[C@@H](C)O)CSSC[C@@H](C(=O)O)NC(=O)[C@H](CCCCN)NC(=O)[C@H](Cc2c[nH]cn2)NC(=O)[C@H](CC(N)=O)NC(=O)CNC(=O)[C@H](CCC(N)=O)NC(=O)[C@H](Cc2c[nH]cn2)NC(=O)CNC(=O)CNC(=O)[C@H]([C@@H](C)O)NC(=O)[C@H](C)NC(=O)[C@H](Cc2c[nH]c3ccccc23)NC(=O)[C@H](C)NC(=O)[C@H](CCSC)NC(=O)[C@H](C)NC(=O)CNC(=O)[C@H](CC(N)=O)NC(=O)[C@H](CC(N)=O)NC(=O)[C@H]([C@@H](C)CC)NC1=O [3c, pediocin PA-1]",activity against M. luteus ATCC 10240,M. luteus ATCC 10240,no activity
CC[C@H](C)[C@H](NC(=O)[C@H](CS)NC(=O)[C@@H](NC(=O)[C@@H](NC(=O)[C@H](C)NC(=O)[C@H](CCCCN)NC(=O)CNC(=O)[C@H](Cc1c[nH]c2ccccc12)NC(=O)[C@H](CC(=O)O)NC(=O)[C@@H](NC(=O)[C@H](CO)NC(=O)[C@H](CS)NC(=O)[C@H](CO)NC(=O)[C@H](Cc1c[nH]cn1)NC(=O)[C@H](CCCCN)NC(=O)CNC(=O)[C@H](CS)NC(=O)[C@@H](NC(=O)[C@@H](NC(=O)CNC(=O)[C@H](CC(N)=O)NC(=O)CNC(=O)[C@H](Cc1ccc(O)cc1)NC(=O)[C@H](Cc1ccc(O)cc1)NC(=O)[C@@H](N)CCCCN)C(C)C)[C@@H](C)O)C(C)C)[C@@H](C)O)[C@@H](C)O)C(=O)N[C@H](C(=O)N[C@@H](CC(N)=O)C(=O)N[C@@H](CC(N)=O)C(=O)NCC(=O)N[C@@H](C)C(=O)N[C@@H](CC(C)C)C(=O)N[C@@H](C)C(=O)N[C@@H](Cc1c[nH]c2ccccc12)C(=O)N[C@@H](C)C(=O)N[C@H](C(=O)NCC(=O)NCC(=O)N[C@@H](Cc1c[nH]cn1)C(=O)N[C@@H](CCC(N)=O)C(=O)NCC(=O)N[C@@H](CC(N)=O)C(=O)N[C@@H](Cc1c[nH]cn1)C(=O)N[C@@H](CCCCN)C(=O)N[C@@H](CS)C(=O)O)[C@@H](C)O)[C@@H](C)CC [compound 4],MIC,[1],n.a. (no activity detected at concentrations up to 100 µM)
same,MIC,[2],n.a. (no activity detected at concentrations up to 100 µM)
same,MIC,[3],n.a. (no activity detected at concentrations up to 100 µM)
same,MIC,[4],n.a. (no activity detected at concentrations up to 100 µM)
same,MIC,[5],n.a. (no activity detected at concentrations up to 100 µM)
same,MIC,[6],n.a. (no activity detected at concentrations up to 100 µM)
same,MIC,[7],n.a. (no activity detected at concentrations up to 100 µM)
same,MIC,[8],n.a. (no activity detected at concentrations up to 100 µM)
same,MIC,[9],n.a. (no activity detected at concentrations up to 100 µM)
same,MIC,[10],n.a. (no activity detected at concentrations up to 100 µM)
same,MIC,[11],n.a. (no activity detected at concentrations up to 100 µM)
same,MIC,[12],n.a. (no activity detected at concentrations up to 100 µM)
same,MIC,[13],n.a. (no activity detected at concentrations up to 100 µM)
same,"inhibition diameters against C. perfringens, range over two strains",C. perfringens,22–25 mm
same,MIC,[14],n.a. (no activity detected at concentrations up to 100 µM)
KYYGNGVTAGKHSASVDWGKATTAIINNGAMAWATGGHQGNHKA [compound 6],Minimal inhibitory concentration,[15],n.a. (no activity detected at concentrations up to 100 µM)
same,Minimal inhibitory concentration,L. monocytogenes LSD530,n.a. (no activity detected at concentrations up to 100 µM)
same,Minimal inhibitory concentration,L. ivanovii HPB28,n.a.^a (no activity detected at concentrations up to 100 µM)
same,Minimal inhibitory concentration,P. acidilactici UL5,n.a. (no activity detected at concentrations up to 100 µM)
same,"MIC, range over the Listeria target strains",[16],completely inactive
same,Inhibition zone diameter,[17],no activity
